In patent US10087234B2, “Mimetic peptides” (LES HOPITAUX UNIVERSITAIRES DE GENEVE, priority 2012, dated 2018):
Bridges are numbered along the chain shown (N, C = ends). Where no end group is shown, it is not given here. [ ]: non-standard residue; d: D form. R8 = C=CCCCCCC[C@@](C)(N)C(=O)O; S5 = C=CCCC[C@](C)(N)C(=O)O

How the values were obtained:
[1] = CD spectroscopy to determine helical content; assay type: physicochemical; details: troughs at 208 and 222 nm, in comparison to non-stapled control peptide F3
Experimental: Circular dichroism (CD) spectra from 185 to 240 nm were collected on a Jasco J-815 spectropolarimeter at 20° C. A typical sample was prepared by dissolving lyophilized peptide in 25% trifluoroethanol in water to obtain a concentration of 2 mM, then diluting this solution 20-fold in water and loading in a quartz cuvette (0.2 cm path length). Baseline CD spectra for 1.25% TFE in water was subtracted from the experimental spectra. Data were normalized by calculating the mean residue ellipticity at wavelength 222 nm, (θ)mrw, λ.

[2] = test system: Human monocyte-derived macrophages (HMDMs); assay: Anti-ApoA-I IgG-related pro-inflammatory response (TNF-α production); assay type: cell-based
Experimental: Human monocyte-derived macrophages (HMDMs) were obtained by treating human monocytes with interferon (IFN)-γ for 24 hours as previously described (Pagano et al, 2012, J Intern Med). HMDMs were then stimulated in 96-well trays for 24 h with increasing concentrations (5-40 μg/mL) of either polyclonal anti-human ApoA-I (Academy Bio-Medical Company, Houston, Tex., USA) or control antibody (Meridian Life Science, Saco, Me., USA), with IgG from pool+ or pool− (500 μg/mL). In this model, LPS-free anti-ApoA-I IgG has been show to promote the production of TNF-α and IL-6 in a dose dependent manner, with an optimal stimulation at 40 μg/ml (Pagano et al, 2012, J Intern Med).
For competition inhibition experiments, synthetic peptides were co-incubated with 40 μg/ml polyclonal anti-ApoA-I IgG for 2 h at room temperature prior to addition to HMDMs in 96-well plates, and followed by the assessment of IL-6 and TNF-α levels in cell supernatants using Luminex MAP™ Technology. Experiments were performed with blood from three different donors.

[3] = test system: Neonatal rat ventricular cardiomyocytes (NRVC); assay: Anti-ApoA-I IgG-related chronotropic response (beating frequency); assay type: cell-based
Excerpt: Neonatal rat ventricular cardiomyocytes (NRVC) were isolated from ventricles of 1-2 day-old Wistar rats by digestion with low trypsin-EDTA and type 2 collagenase. Animals were killed by decapitation without any anesthesia, analgesia, or administration of neuromuscular blocking agents, in conformity with the Guide for the Care and Use of Laboratory Animals published by the NIH (publication 85-23) and with the authorization (1012/3134/0-R) of the local county veterinary office. Freshly isolated cells were seeded in plastic flasks to allow selective adhesion of cardiac fibroblasts. Thereafter cardiomyocytes were decanted from the flasks and distributed into laminin-coated 90 mm petri dishes.
After 1-2 days' culture, cells were incubated at time intervals with the appropriate concentration of monoclonal anti-ApoA-I IgG (Abcam, Nottingham, UK) or vehicle in serum-free DMEM. The beating frequency of spontaneously contracting small cell monolayers was determined immediately at the end of the pre-incubation period (t=0) and at different times after the addition of various substances. Frequency determinations were performed by a technician (unaware of the experimental conditions) using a light microscope to count the number of contractions per time unit in three different locations of the dish. The regularity of the cell contractions has been previously assessed by monitoring cytosolic-free calcium fluctuations with fluorescent calcium probes (Maturana et al, 2009, Endocrinology 150:3726-3734). […] Competition inhibition experiments with synthetic peptides were performed using the same experimental conditions. Synthetic peptides were co-incubated with 10 μg/ml monoclonal anti-ApoA-I (Abcam, Nottingham, UK) for 2 h at room temperature, before being added to NRVC in dishes, with beating frequency determined as described above.

anti-ApoA-I antibodies [4] = assay: Competition ELISA on plates coated with intact ApoA-I; assay type: binding, human
Experimental: Competition ELISA experiments using selected synthetic peptides were also carried out. Synthetic peptides (dissolved in PBS with 2% bovine serum albumin (BSA) at different concentrations were co-incubated with patient sera containing high levels of anti-ApoA-I IgG for 2 h at room temperature, before being added to the wells coated with purified, human-derived delipidated ApoA-I as described above, prior to development of the assay as described above.
In competition ELISA assays, serum from a patient known to be positive for anti-ApoA-I antibodies was preincubated with peptide F3L1 at different concentrations as indicated in FIG. 3 and then added to ELISA plates coated with intact ApoA-I, with the subsequent assay steps carried out according to the standard protocol.

anti-ApoA-I antibodies [5] = assay: ELISA immunoreactivity of ApoA-I digestion fragments (epitope identification); assay type: binding, human; details: sera from 3 patients with high and 3 with low autoantibody titers
Experimental: To identify specific endogenous epitopes of ApoA-I, the purified ApoA-I was submitted to enzymatic digestion, hydrolyzing the protein specifically at the carboxyl side of lysine or at the carboxylic side of arginine, followed by peptide separation and purification by reversed phase-high performance liquid chromatography and peptide identification by mass spectrometry. The immunoreactivity to the digested protein and each fraction were tested by ELISA using serum samples from 3 patients with high titers and serum samples from 3 patients with low titers of autoantibodies.
For ApoA-I digested at lysine residues, the enzyme Endoproteinase Lys-C(Roche Applied Science) was used (amount of enzyme 1:50 was 1/50 of protein by weight, incubation for 18 h at 37° C., pH 8.5). ApoA-I digestion with Lys-C allowed identification of fractions 70 and 71 (FIG. 8) containing a previously unreported immunoreactive peptide epitope of amino acid sequence corresponding to amino acid residues 141-182 relative to mature amino acid sequence of ApoA-I of SEQ ID NO: 1, comprising the region derived from helix D of SEQ ID NO: 5 with a deletion of the last 2 amino acids of SEQ ID NO: 5. The amino acid sequence of this epitope is SEQ ID NO: 21.
In order to generate peptide fragments cleaved at arginine residues the conventional way would to use the enzyme ArgC. However, ArgC enzyme has a recognized lack of specificity, generating tryptic peptides, which abolished the immunoreactivity. […] This approach allowed identification of fractions 74 and 80 (FIG. 9) containing another immunoreactive peptide epitope of amino acid sequence corresponding to amino acid residues 216-243 relative to mature amino acid sequence of ApoA-I of SEQ ID NO: 1, comprising the region 1 derived from helix F of SEQ ID NO: 8. The amino acid sequence of this epitope is SEQ ID NO: 25.

[6] = serum from 3 anti-ApoA-I positive patients, FIG. 5

## Ac-GLLPVLESFKVSFLSALEXaaYTKXaaLNT-NH2 (Ac-GLLPVLESFKVSFLSALEEYTKKLNT-NH2; lactam 19-23; SMILES CC(=O)NCC(=O)N[C@@H](CC(C)C)C(=O)N[C@@H](CC(C)C)C(=O)N1CCC[C@H]1C(=O)N[C@H](C(=O)N[C@@H](CC(C)C)C(=O)N[C@@H](CCC(=O)O)C(=O)N[C@@H](CO)C(=O)N[C@@H](Cc1ccccc1)C(=O)N[C@@H](CCCCN)C(=O)N[C@H](C(=O)N[C@@H](CO)C(=O)N[C@@H](Cc1ccccc1)C(=O)N[C@@H](CC(C)C)C(=O)N[C@@H](CO)C(=O)N[C@@H](C)C(=O)N[C@@H](CC(C)C)C(=O)N[C@@H](CCC(=O)O)C(=O)N[C@H]1CCC(=O)NCCCC[C@@H](C(=O)N[C@@H](CC(C)C)C(=O)N[C@@H](CC(N)=O)C(=O)N[C@H](C(N)=O)[C@@H](C)O)NC(=O)[C@H](CCCCN)NC(=O)[C@H]([C@@H](C)O)NC(=O)[C@H](Cc2ccc(O)cc2)NC1=O)C(C)C)C(C)C) [F3L1]
[1]
  alpha-helical content: increased alpha-helical content
[2]; polyclonal anti-ApoA-I IgG 40 μg/ml pre-incubated with peptide 2 h, FIG. 6A
  effect on TNF-α production induced by anti-ApoA-I IgG: abrogated
[2]; pooled patient IgG pre-incubated with peptide, FIG. 6B
  effect on TNF-α production induced by pool of IgG from anti-ApoA-I positive patients: same effect
[3]; antibody pre-incubated with peptide 75 μg/ml for 2 h, FIG. 7
  effect on anti-ApoA-I IgG related chronotropic response: fully abrogated
[3]; peptide added alone
  basal frequency contraction rate: did not alter
[3]; peptide added alone, 10 nM aldosterone
  contraction rate in the presence of 10 nM aldosterone: did not alter
anti-ApoA-I antibodies [4]; [6]
  inhibition of binding of patient serum IgG to intact ApoA-I: competes effectively
anti-ApoA-I antibodies [4]; serum from one anti-ApoA-I positive patient, FIG. 4
  inhibition of binding of patient serum IgG to intact ApoA-I: capable of competitively inhibiting

## Ac-GLLPVLESFKVSFLSXaaLEEYTKXaaLNT-NH2 (Ac-GLLPVLESFKVSFLS[R8]LEEYTK[S5]LNT-NH2; staple 16-23) [F3S2A]
[1]
  alpha-helical content: increased alpha-helical content

## Ac-KELYLLKFTVESKVGSTELPLNFSLA-NH2 [scrambled F3, reference compound]
anti-ApoA-I antibodies [4]; [6]
  inhibition of binding of patient serum IgG to intact ApoA-I: absence of dose-dependent inhibition

## Ac-VLESFKVSFLSALEXaaYTKXaaLNT-NH2 (Ac-VLESFKVSFLSALEEYTKKLNT-NH2; lactam 15-19; SMILES CC(=O)N[C@H](C(=O)N[C@@H](CC(C)C)C(=O)N[C@@H](CCC(=O)O)C(=O)N[C@@H](CO)C(=O)N[C@@H](Cc1ccccc1)C(=O)N[C@@H](CCCCN)C(=O)N[C@H](C(=O)N[C@@H](CO)C(=O)N[C@@H](Cc1ccccc1)C(=O)N[C@@H](CC(C)C)C(=O)N[C@@H](CO)C(=O)N[C@@H](C)C(=O)N[C@@H](CC(C)C)C(=O)N[C@@H](CCC(=O)O)C(=O)N[C@H]1CCC(=O)NCCCC[C@@H](C(=O)N[C@@H](CC(C)C)C(=O)N[C@@H](CC(N)=O)C(=O)N[C@H](C(N)=O)[C@@H](C)O)NC(=O)[C@H](CCCCN)NC(=O)[C@H]([C@@H](C)O)NC(=O)[C@H](Cc2ccc(O)cc2)NC1=O)C(C)C)C(C)C) [F4L1]
[1]
  alpha-helical content: increased alpha-helical content

## Ac-VLESFKVSXaaLSALEEXaaTKKLNT-NH2 (Ac-VLESFKVS[R8]LSALEE[S5]TKKLNT-NH2; staple 9-16) [F4S2B]
[1]
  alpha-helical content: increased alpha-helical content

## EEMRDRARAHVDALRTHLAPYSDELRQRLAARLEALKEN (Region derived from Helix D of ApoA-I) [SEQ ID NO: 5]
anti-ApoA-I antibodies [5]
  immunoreactivity to anti-ApoA-I antibodies: more immunoreactive

## GLLPVLESFKVSFLSALEEYTKKLNT (Ac-GLLPVLESFKVSFLSALEEYTKKLNT-NH2) [F3, reference compound]
anti-ApoA-I antibodies [4]; [6]
  inhibition of binding of patient serum IgG to intact ApoA-I: effect observed

## GLLPVLESFKVSFLSALEEYTKKLNT (not fully specified (bridges)) [SEQ ID NO: 9, Region 2 derived from helix F]
anti-ApoA-I antibodies [5]
  immunoreactivity to anti-ApoA-I antibodies: more immunoreactive

## LSPLGEEMRDRARAHVDALRTHLAPYSDELRQRLAARLEALK (D2) [SEQ ID NO: 21]
anti-ApoA-I antibodies [5]
  immunoreactivity to anti-ApoA-I antibodies: immunoreactive

## QGLLPVLESFKVSFLSALEEYTKKLNTQ (F5) [SEQ ID NO: 25]
anti-ApoA-I antibodies [5]
  immunoreactivity to anti-ApoA-I antibodies: immunoreactive

## VLESFKVSFLSALEEYTKKLNT (not fully specified (bridges)) [SEQ ID NO: 8, Region 1 derived from helix F]
anti-ApoA-I antibodies [5]
  immunoreactivity to anti-ApoA-I antibodies: more immunoreactive

## amino acid residues 189-215 of mature ApoA-1: peptide corresponding to amino acid residues 189-215 of mature ApoA-1 of SEQ ID NO: 1, containing helix E (LAEYHAKATEHLSTLSEKAKPALEDLR; UniProt P02647 213-239, looked up, fragment)
anti-ApoA-I antibodies [5]
  immunoreactivity to anti-ApoA-I antibodies: less immunoreactive
